Test results taken from US20040038855A1 (priority 1999, published 2004).
Structures can show the parent of a compound that is named as a salt. Where two headings read alike, the source gives them in different places. One block for each compound: values may come before it.

Assays:
human α2B adrenoceptor = biological target: T1, human α2B adrenoceptor (Homo sapiens, UniProt P18089); experiment: Binding affinity at the human α2B adrenergic receptor
T1 construct: expressed in transfected cells
T1 sequence (P18089 1-450): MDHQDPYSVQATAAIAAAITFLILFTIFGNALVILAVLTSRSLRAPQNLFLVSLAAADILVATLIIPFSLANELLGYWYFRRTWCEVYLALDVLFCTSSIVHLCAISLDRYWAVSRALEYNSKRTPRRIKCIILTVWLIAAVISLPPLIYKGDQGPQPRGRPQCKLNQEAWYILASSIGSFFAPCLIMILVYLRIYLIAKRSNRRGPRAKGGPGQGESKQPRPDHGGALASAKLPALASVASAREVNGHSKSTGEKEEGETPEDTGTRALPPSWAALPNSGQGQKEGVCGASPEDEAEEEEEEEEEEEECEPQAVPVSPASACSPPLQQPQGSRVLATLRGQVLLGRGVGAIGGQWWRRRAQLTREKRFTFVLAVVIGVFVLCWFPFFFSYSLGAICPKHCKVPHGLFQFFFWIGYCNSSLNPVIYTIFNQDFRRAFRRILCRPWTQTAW
From the text: Other receptors: Cell membranes expressing human dopamine D1, D2, D4 and rat D3 receptors were purchased through BioSignal, Inc. (Montreal, Canada). Binding assays using the histamine H1 receptor; dopamine receptors; and α1A, α1B, and α2 adrenergic receptors may be carried out according to the procedures described in U.S. Pat. No. 5,780,485, the disclosure of which is hereby incorporated by reference in its entirety into this application. Binding assays using the dopamine D5 receptor may be carried out according to the procedures described in U.S. Pat. No. 5,882,855, the disclosure of which is hereby incorporated by reference in its entirety into this application. Binding assays for the human α1D adrenergic receptor may be carried out according to the procedures described in U.S. Pat. No. 6,156,518, the disclosure of which is hereby incorporated by reference in its entirety into this application.

human MCH1 receptor = human MCH1 receptor (Homo sapiens, UniProt Q99705); experiment: Competition binding, membrane preparations of A293 cells expressing the human MCH1 receptor, [3H] Compound 10 as radioligand; parameters: expressed in transfected cells
human MCH1 receptor, sequence (Q99705 whole entry): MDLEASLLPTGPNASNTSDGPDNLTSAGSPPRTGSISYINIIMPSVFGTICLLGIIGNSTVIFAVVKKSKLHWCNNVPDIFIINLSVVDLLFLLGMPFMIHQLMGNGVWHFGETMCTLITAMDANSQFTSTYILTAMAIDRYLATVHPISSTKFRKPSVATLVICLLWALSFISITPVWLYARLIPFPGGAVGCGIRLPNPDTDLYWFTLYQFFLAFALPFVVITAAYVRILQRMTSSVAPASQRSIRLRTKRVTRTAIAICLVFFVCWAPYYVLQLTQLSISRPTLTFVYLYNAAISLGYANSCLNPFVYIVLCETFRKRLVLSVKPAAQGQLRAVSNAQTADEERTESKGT
Procedure: TRITIATED METHYL (4S)-3-{[(3-{4-[3-(ACETYLAMINO)PHENYL]-1-[…]}PROPYL)AMINO]CARBONYL}-4-(3,4-DIFLUOROPHENYL)-6-(METHOXYMETHYL)-2-OXO-1,2,3,4-TETRAHYDRO-5-PYRIMIDINECARBOXYLATE ([^3H] COMPOUND 10): This radiochemical synthesis was carried out by Amersham Pharmacia Biotech, Cardiff, Wales. A methanolic solution of methyl (4S)-3-({[3-(4-[3-(acetylamino)phenyl]-3,6-dihydro-1(2H)pyridinyl)propyl]amino}carbonyl)-4-(3,4-difluorophenyl)-6-(methoxymethyl)-2-oxo-1,2,3,4-tetrahydro-5-pyrimidinecarboxylate was exposed to tritium gas at 1 atmosphere pressure in the presence of 5% palladium on carbon with stirring overnight to give the tritiated methyl (4S)-3-{[(3-{4-[3-(acetylamino)phenyl]-1-piperidinyl}propyl)amino]carbonyl}-4-(3,4-difluorophenyl)-6-(methoxymethyl)-2-oxo-1,2,3,4-tetrahydro-5-pyrimidinecarboxylate ((+)-isomer) After purification by reverse phase HPLC (Hypersil ODS, 4.6×100 mm, methanol:H2O:Et3N 10:90:1 to 100:0:1 in 15 min at 1.0 mL/min, with radiochemical and UV detection), this product was used as a radioligand in the MCH1 binding assays. The same procedure was carried out with H2 gas in place of ^3H2 to afford the non-radioactive version of Compound 10.

human GALR2 receptor = biological target: T2, human GALR2 receptor (Homo sapiens, UniProt O43603); experiment: Binding affinity at the human GALR2 receptor
T2 construct: expressed in transfected cells
T2 sequence (O43603 1-387): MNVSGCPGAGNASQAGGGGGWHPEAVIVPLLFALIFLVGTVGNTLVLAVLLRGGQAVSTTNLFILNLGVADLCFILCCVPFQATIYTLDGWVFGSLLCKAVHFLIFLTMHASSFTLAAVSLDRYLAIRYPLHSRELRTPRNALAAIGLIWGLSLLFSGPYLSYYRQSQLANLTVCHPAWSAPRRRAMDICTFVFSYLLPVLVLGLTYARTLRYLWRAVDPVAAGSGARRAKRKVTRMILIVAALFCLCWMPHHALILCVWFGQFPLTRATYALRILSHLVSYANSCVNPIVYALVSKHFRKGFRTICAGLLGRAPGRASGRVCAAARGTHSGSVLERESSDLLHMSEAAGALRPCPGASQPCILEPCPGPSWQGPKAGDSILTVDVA

[1] = Table 3b, A293 cell membranes, [3H] Compound 10, read-out: hMCH1* Ki

Compound: 2-(3,4-DIFLUOROPHENYL)4,5-DIHYDROIMIDAZOLE-1-CARBOXYLIC ACID {3-[4-PHENYL-4-(4-BROMO-5-METHYLTHIOPNEN-2-YL)]-PROPYL}-AMIDE [Example 19]
Ki (human α2B adrenoceptor; Table 3d, read-out: hα2B Ki): 349 nM
Ki (human MCH1 receptor; [1]): 3 nM
Ki (human MCH1 receptor; Table 3e, read-out: hMCH1 Ki): 3 nM
Ki (human MCH1 receptor; Table 3d, read-out: hMCH1 Ki): 3 nM
Ki (human GALR2 receptor; Table 3a, read-out: hGALR2 Ki): > 50000 nM
Ki (human GALR2 receptor; Table 3b, read-out: hGALR2 Ki): > 50000 nM

Compound: COC(=O)C1=C(C)NC(=O)N(C(=O)NCCCN2CCC3(CC2)OCc2ccccc23)C1c1ccc2nonc2c1 (single isomer, unassigned) [Example 18, HYDROCHLORIDE]
Ki (human α2B adrenoceptor): 74 nM
Ki (human MCH1 receptor): 4 nM
Ki (human GALR2 receptor): > 50000 nM
Ki (human GALR2 receptor; read-out: hGALR2 Ki, Table 3b): > 50000 nM

Compound: CCC1=C(C(=O)O)C(c2ccc(F)c(F)c2)N(C(=O)NCCCN2CCC3(CC2)OCc2ccccc23)C(=O)N1 (single isomer, unassigned; (+)) [Example 4, (+)-1,2,3,6-TETRAHYDRO-1-1N-[4-(BENZO-4′,5′(H)FURAN)PIPERIDIN-1-YL]PROPYL}-CARBOXAMIDO-4-ETHYL-6-(3,4-DIFLUOROPHENYL)-2-OXO-PYRIMIDINE-5 CARBOXYLIC ACID HYDROCHLORIDE]
Ki (human MCH1 receptor; [1]): 131 nM
Ki (human GALR2 receptor; Table 3a, read-out: hGALR2 Ki): > 50000 nM
Ki (human GALR2 receptor; Table 3b, read-out: hGALR2 Ki): > 50000 nM

Ki (human MCH1 receptor; [1]): 40 nM
Ki (human GALR2 receptor; Table 3a, read-out: hGALR2 Ki): > 50000 nM
Ki (human GALR2 receptor; Table 3b, read-out: hGALR2 Ki): > 50000 nM
Compound: COCC1=C(C(=O)OC)C(c2ccc(F)c(F)c2)N(C(=O)NCCCN2CCC(c3cccc(NC(C)=O)c3)CC2)C(=O)N1 (single isomer, unassigned; (-)) [Example 1, (−)-1,2,3,6-TETRAHYDRO-1-{N-[4-(3,-ACETAMIDO)-PHENYLPIPERIDIN-1-YL]PROPYL}CARBOXAMIDO-4-METHOXYMETHYL-6-(3,4-DIFLUORO-PHENYL)-2-OXOPYRIMIDINE-5-CARBOXYLIC ACID METHYL ESTER]

Compound: CCCCN(CCCC)c1ccc(CN2CCC(CNC(=O)N3C(=O)NC(C)=C(C(=O)OC)C3c3ccc4nonc4c3)CC2)cc1 (stereo not shown) [Example 6]
Ki (human MCH1 receptor; [1]): 463 nM
Ki (human GALR2 receptor; Table 3a, read-out: hGALR2 Ki): 14900 nM
Ki (human GALR2 receptor; Table 3b, read-out: hGALR2 Ki): 14900 nM

Compound: COCC1=C(C(=O)OC)[C@H](c2ccc(F)c(F)c2)N(C(=O)NCCCN2CCC(c3cccc(NC(C)=O)c3)CC2)C(=O)N1 [Example 10, (+)-1,2,3,6-TETRAHYDRO-1-{N-[4-(3,-ACETAMIDO)-PHENYLPIPERIDIN-1-YL]PROPYL}CARBOXAMIDO-4-METHOXYMETHYL-6-(3,4-DIFLUORO-PHENYL)-2-OXOPYRIMIDINE-5-CARBOXYLIC ACID METHYL ESTER]
Ki (human MCH1 receptor; [1]): 0.08 nM
Ki (human GALR2 receptor; Table 3a, read-out: hGALR2 Ki): > 50000 nM
Ki (human GALR2 receptor; Table 3b, read-out: hGALR2 Ki): > 50000 nM

Ki (human MCH1 receptor; [1]): 171 nM
Ki (human GALR2 receptor; Table 3a, read-out: hGALR2 Ki): 4730 nM
Ki (human GALR2 receptor; Table 3b, read-out: hGALR2 Ki): 4730 nM
Compound: CCCCN(CCCC)c1ccc(CNC[C@H]2CC[C@H](NC(=O)c3cccc4ccccc34)CC2)cc1 [Example 13, N1-[4-([4-(DIBUTYLAMINO)BENZYL]AMINOMETHYL)CYCLOHEXYL]-1-NAPHTH-AMIDE]

Compound: COC(=O)C1=C(C)NC(=O)N(C(=O)NCCCN2CCC3(CC2)OCc2ccccc23)C1c1ccc(F)c(F)c1 (stereo not shown) [Example 20, 4-(3,4-DIFLUORPHENYL)-6-METHYL-2-OXO-3-{[3-(4-SPIRO[ISOBENZOFURAN-1(3H),4′-PIPERIDINE]PROPYL}-1,2,3,4-TETRAHYDROPYRIMIDINE-5-CARBOXYLIC ACID METHYL ESTER]
Ki (human α2B adrenoceptor): 97 nM
Ki (human MCH1 receptor): 6 nM
Ki (human MCH1 receptor; read-out: hMCH1 Ki, Table 3e): 6 nM
Ki (human MCH1 receptor; read-out: hMCH1 Ki, Table 3d): 6 nM
Ki (human GALR2 receptor): > 50000 nM
Ki (human GALR2 receptor; read-out: hGALR2 Ki, Table 3b): > 50000 nM

Compound: O=C(CCCN1CCC(O)(c2ccc(Cl)cc2)CC1)c1ccc(Cl)cc1 [Example 29]
Ki (human MCH1 receptor): 350 nM
Ki (human GALR2 receptor): > 50000 nM
Ki (human GALR2 receptor; read-out: hGALR2 Ki, Table 3b): > 50000 nM
